The values that follow come from US9187435B2, “Bridged Spiro[2.4]heptane ester derivatives” (Actelion Pharmaceuticals Ltd., priority 2010, dated 2015).

The target of this assay is T1, human ALX receptor (Homo sapiens, UniProt P25090).
T1 construct: expressed in transfected cells; host or cells: HEK293 (HEK293-hALXR-Gα16)
T1 sequence (P25090 1-351): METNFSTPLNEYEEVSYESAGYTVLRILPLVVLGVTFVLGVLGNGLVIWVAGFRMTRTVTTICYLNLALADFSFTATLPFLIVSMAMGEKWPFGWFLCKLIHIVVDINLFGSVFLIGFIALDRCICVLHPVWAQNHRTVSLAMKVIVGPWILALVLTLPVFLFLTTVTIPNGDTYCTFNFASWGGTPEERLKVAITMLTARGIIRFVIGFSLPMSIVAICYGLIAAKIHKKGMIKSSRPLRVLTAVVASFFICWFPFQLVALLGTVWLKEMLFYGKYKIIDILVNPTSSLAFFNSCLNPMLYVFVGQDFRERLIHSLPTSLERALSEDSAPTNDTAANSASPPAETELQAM
Nature of the assay: Intracellular calcium measurements (FLIPR) in HEK293-hALXR-Gα16 cells, agonistic activity. The class given is cell-based. To be noted: values normalized to WKYMVm 10 nM. As for the experimental part:
The ALX receptor and FPRL2 agonistic activities of the compounds of formula (I) are determined in accordance with the following experimental method.
Intracellular Calcium Measurements:
Cells expressing recombinant human ALX receptor and the G-protein Gα16 (HEK293-hALXR-Gα16) were grown to 80% confluency in Growing Medium (GM). Cells were detached from culture dishes with a cell dissociation buffer (Invitrogen, 13151-014), and collected by centrifugation at 1,000 rpm at rt for 5 min in Assay Buffer (AB) (equal parts of Hank's BSS (Gibco, 14065-049) and DMEM without Phenol Red (Gibco, 11880-028)). After 60 min incubation at 37° C. under 5% CO2 in AB supplemented with 1 μM Fluo-4 (AM) (Invitrogen, F14202), and 20 mM HEPES (Gibco, 15630-056), the cells were washed and resuspended in AB. They were then seeded onto 384-well FLIPR assay plates (Greiner, 781091) at 50,000 cells in 70 μl per well and sedimented by centrifugation at 1,000 rpm for 1 min. Stock solutions of test compounds were made up at a concentration of 10 mM in DMSO, and serially diluted in AB to concentrations required for activation dose response curves. WKYMVm (Phoenix Peptides) was used as a reference agonist. FLIPR384 or FLIPR Tetra instruments (Molecular Devices) were operated according to the manufacturer's standard instructions, adding 4 μl of test compound dissolved at 10 mM in DMSO and diluted prior to the experiment in assay buffer to obtain the desired final concentration. Changes in fluorescence were monitored before and after the addition of test compounds at lex=488 nm and lem=540 nm. Emission peak values above base level after compounds addition were exported after base line subtraction. Values were normalized to high-level control (WKYMVm compound, 10 nM final concentration) after subtraction of the base line value (AB addition).

Where a name gives a salt, the structure may show the parent alone.

Regarding `O=C(OCC(O)CO)[C@H]1[C@H](C(=O)Nc2ccc(Br)nc2)[C@@H]2CC[C@H]1C21CC1` (relative stereo) [Example 5, (1S,2R,3R,4R)-[(S*)-2,3-Dihydroxypropyl 2-((6-bromopyridin-3-yl)carbamoyl)spiro[bicyclo[2.2.1]heptane-7,1′-cyclopropane]-3-carboxylate]], the EC50 worked out at 242 nM.

`O=C(OCC[C@H]1CCNC[C@H]1F)[C@H]1[C@H](C(=O)Nc2ccc(Br)nc2)[C@@H]2CC[C@H]1C21CC1` (relative stereo) [Example 38, (1S,2R,3R,4R)-[2-(cis-3-Fluoro-piperidin-4-yl)ethyl 2-((6-bromopyridin-3-yl)carbamoyl)spiro[bicyclo[2.2.1]heptane-7,1′-cyclopropane]-3-carboxylate]]: the EC50 turned out to be 1.8 nM.

For the molecule `Cc1cc(CNC(=O)[C@H]2[C@H](C(=O)OCC[C@H]3CCNC[C@H]3F)[C@H]3CC[C@@H]2C32CC2)on1` (relative stereo) [Example 39, (1S,2R,3R,4R)-[2-(cis-3-Fluoro-piperidin-4-yl)ethyl 2-(((3-methylisoxazol-5-yl)methyl)carbamoyl)spiro[bicyclo[2.2.1]heptane-7,1′-cyclopropane]-3-carboxylate]], the half-maximal effective concentration (EC50) stood at 3.7 nM.

Turning to `Cc1cc(CNC(=O)[C@H]2[C@H](C(=O)O[C@@H]3CCNC[C@H]3F)[C@H]3CC[C@@H]2C32CC2)on1` (relative stereo) [Example 46, (1S,2R,3R,4R)-[(trans-3-Fluoro-piperidin-4-yl) 2-(((3-methylisoxazol-5-yl)methyl)carbamoyl)spiro[bicyclo[2.2.1]heptane-7,1′-cyclopropane]-3-carboxylate]], the EC50 was 9.7 nM.

Regarding `O=C(O[C@@H]1CCNC[C@H]1F)[C@H]1[C@H](C(=O)Nc2ccc(Br)nc2)[C@@H]2CC[C@H]1C21CC1` (relative stereo) [Example 57, (1S,2R,3R,4R)-[(trans-3-Fluoro-piperidin-4-yl) 2-((6-bromopyridin-3-yl)carbamoyl)spiro[bicyclo[2.2.1]heptane-7,1′-cyclopropane]-3-carboxylate]], the EC50 was 33.4 nM.

`Cc1cc(CNC(=O)[C@H]2[C@H](C(=O)O[C@H]3CCNC[C@H]3F)[C@H]3CC[C@@H]2C32CC2)on1` (relative stereo) [Example 62, (1S,2R,3R,4R)-[cis-(3-Fluoro-piperidin-4-yl) 2-(((3-methylisoxazol-5-yl)methyl)carbamoyl)spiro[bicyclo[2.2.1]heptane-7,1′-cyclopropane]-3-carboxylate]]: the EC50 is 77.5 nM.

With `O=C(OC[C@H]1CCNC[C@H]1F)[C@H]1[C@H](C(=O)Nc2ccc(Br)nc2)[C@@H]2CC[C@H]1C21CC1` (relative stereo) [Example 64, (1S,2R,3R,4R)-[(cis-3-Fluoro-piperidin-4-yl)methyl 2-((6-bromopyridin-3-yl)carbamoyl)spiro[bicyclo[2.2.1]heptane-7,1′-cyclopropane]-3-carboxylate]], the EC50 came out at 106 nM.

Consider `O=C(OC[C@@H]1CCNC[C@H]1F)[C@H]1[C@H](C(=O)Nc2ccc(Br)nc2)[C@@H]2CC[C@H]1C21CC1` (relative stereo) [Example 70, (1S,2R,3R,4R)-[(trans-3-Fluoro-piperidin-4-yl)methyl 2-((6-bromopyridin-3-yl)carbamoyl)spiro[bicyclo[2.2.1]heptane-7,1′-cyclopropane]-3-carboxylate]], for which the EC50 was determined as 157 nM.

Consider `O=C(O[C@H]1CCNC[C@H]1F)[C@H]1[C@H](C(=O)Nc2ccc(Br)nc2)[C@@H]2CC[C@H]1C21CC1` (relative stereo) [Example 74, (1S,2R,3R,4R)-[cis-3-Fluoro-piperidin-4-yl 2-((6-bromopyridin-3-yl)carbamoyl)spiro[bicyclo[2.2.1]heptane-7,1′-cyclopropane]-3-carboxylate]], for which the EC50 stood at 280 nM.

For the molecule `O=C(Nc1ccc(Br)nc1)C1C(C(=O)OCC2CCNCC2)C2CCC1C21CC1` [Example 1, (1S,2R,3R,4R)-[Piperidin-4-ylmethyl 2-((6-bromopyridin-3-yl)carbamoyl)spiro[bicyclo[2.2.1]heptane-7,1′-cyclopropane]-3-carboxylate]], the EC50 is 8.1 nM.

Regarding `O=C(OC1CCNCC1)[C@H]1[C@H](C(=O)Nc2ccc(Br)nc2)[C@@H]2CC[C@H]1C21CC1` [Example 2, (1S,2R,3R,4R)-[Piperidin-4-yl 2-((6-bromopyridin-3-yl)carbamoyl)spiro[bicyclo[2.2.1]heptane-7,1′-cyclopropane]-3-carboxylate]], the EC50 amounted to 15.1 nM.

For the molecule `Cc1cc(CNC(=O)[C@H]2[C@H](C(=O)OCC3CCNCC3)[C@H]3CC[C@@H]2C32CC2)no1` [Example 3, (1S,2R,3R,4R)-[Piperidin-4-ylmethyl 2-(((5-methylisoxazol-3-yl)methyl)carbamoyl)spiro[bicyclo[2.2.1]heptane-7,1′-cyclopropane]-3-carboxylate]hydrochloride], the EC50 is 22.7 nM.

For the molecule `O=C(OCC1CCNCC1)[C@H]1[C@H](C(=O)NCc2ccc(Br)cc2F)[C@@H]2CC[C@H]1C21CC1` [Example 4, (1S,2R,3R,4R)-[Piperidin-4-ylmethyl 2-((4-bromo-2-fluorobenzyl)carbamoyl)spiro[bicyclo[2.2.1]heptane-7,1′-cyclopropane]-3-carboxylate]hydrochloride], the EC50 was found to be 52.1 nM.

Take `CN1CCC(OC(=O)[C@H]2[C@H](C(=O)Nc3ccc(Br)nc3)[C@@H]3CC[C@H]2C32CC2)CC1` [Example 6, (1S,2R,3R,4R)-[1-Methylpiperidin-4-yl 2-((6-bromopyridin-3-yl)carbamoyl)spiro[bicyclo[2.2.1]heptane-7,1′-cyclopropane]-3-carboxylate]]: the EC50 turned out to be 257 nM.

For `COCCOC(=O)[C@H]1[C@H](C(=O)Nc2ccc(Br)nc2)[C@@H]2CC[C@H]1C21CC1` [Example 7, (1S,2R,3R,4R)-[2-Methoxyethyl 2-((6-bromopyridin-3-yl)carbamoyl)spiro[bicyclo[2.2.1]heptane-7,1′-cyclopropane]-3-carboxylate]], the EC50 is 303 nM.

With `CN1C(C)(C)CC(OC(=O)[C@H]2[C@H](C(=O)Nc3ccc(Br)nc3)[C@@H]3CC[C@H]2C32CC2)CC1(C)C` [Example 8, (1S,2R,3R,4R)-[1,2,2,6,6-Pentamethylpiperidin-4-yl 2-((6-bromopyridin-3-yl)carbamoyl)spiro[bicyclo[2.2.1]heptane-7,1′-cyclopropane]-3-carboxylate]], the EC50 came out at 753 nM.

For `O=C(OC1CCCNC1)[C@H]1[C@H](C(=O)Nc2ccc(Br)nc2)[C@@H]2CC[C@H]1C21CC1` (stereo partly drawn) [Example 9, (1S,2R,3R,4R)-[Piperidin-3-yl 2-((6-bromopyridin-3-yl)carbamoyl)spiro[bicyclo[2.2.1]heptane-7,1′-cyclopropane]-3-carboxylate]hydrochloride], the EC50 amounted to 2.5 nM.

Take `O=C(OCCC1CCCNC1)[C@H]1[C@H](C(=O)Nc2ccc(Br)nc2)[C@@H]2CC[C@H]1C21CC1` (stereo partly drawn) [Example 10, (1S,2R,3R,4R)-[2-(Piperidin-3-yl)ethyl 2-((6-bromopyridin-3-yl)carbamoyl)spiro[bicyclo[2.2.1]heptane-7,1′-cyclopropane]-3-carboxylate]hydrochloride]: the EC50 stood at 3.1 nM.
